In one data set the test system is Artemia salina L. larvae. In words: brine shrimp lethality test (BSLT). Format: in vivo. The conditions noted are these: for LD50 (BSLT): Artemia salina larvae, 24 h, probit analysis. The protocol: The assay was carried out according to the principle and protocol previously described. Briefly, Artemia salina L. eggs were inserted into a box containing seawater; the box was placed under a UV lamp; after 48 h, the eggs hatched into larvae and were ready for the test. All of the compounds were dissolved in methanol at final concentrations of 1000 to 10 µg/mL. After 24 h, the live and dead shrimp were counted. The experiment was conducted in triplicate. The median lethal concentrations (LD50) with 95% confidence intervals were determined using the Probit analysis method. For LC50 values, probit analysis was used with Minitab V. 15 software (Minitab® Statistical Software, State College, PA, USA).

Data set [1] concerns Monilinia fructicola strain 1 (S1). In words: radial mycelial growth test, M. fructicola strain 1 (S1). It counts as cell-based. The conditions noted are these: PDA, 120 h at 24 °C in the dark; for EC50: Monilinia fructicola, 120 h, n = 6, read-out: EC50 ± SD, mycelial growth inhibition; for EC50 ± SD, mycelial growth inhibition: n = 6. The text has this: (§1) Both strains (S1 and S2) of M. fructicola were kindly provided by the phytopathology laboratory of the Servicio Agrícola y Ganadero de Chile (SAG), Santiago, Chile. The isolate S1 was recovered from infected peach from commercial orchards in the O’Higgins region, Chile, and the isolate S2 was recovered from infected nectarines from commercial orchards in the province of Maipo, Metropolitan Region, Chile and identified to species level with a PCR assay developed by the molecular biology laboratory belonging to SAG; these were maintained on potato dextrose agar (PDA) and incubated for 120 h at 24 °C.
(§2) The antifungal activity of all dihidrocarvone-hybrid derivatives (2–9) against both strains of M. fructicola was determined by the radial test previously reported. The test compounds were dissolved in ethanol (5% v/v) and added to the potato dextrose agar medium (PDA) medium in the petri dishes to obtain a final concentration of 10, 25, 50, 150, and 250 µg/mL. The mycelial growth diameters were measured after 120 h of incubation at 24 °C in the dark, and the inhibition percentages were calculated with respect to the negative ethanol control. The commercial fungicides Mystic® 520 SC (Pyrimethanil 400 g/L, Trifloxystrobin 120 g/L) (Lot: PAIS004727; Bayer, Santiago, Chile) and BC-1000® (grapefruit seed and pulp extract (Citrus x paridisi), 50% w/v (500 g/L)) were used as positive controls and were measured under the same conditions as the compounds.
(§3) The results were expressed as the effective concentration (EC50) that reduced mycelial growth by 50%. This value was determined by regressing the values of the percentage inhibition of radial growth against the compound concentration values. The fit analysis was performed using the Origin Pro® V. 8.0 software (OriginLab Corporation, Northampton, Massachusetts, EE.UU). These experiments were performed in triplicate and each assay was performed twice (n = 6). Significant differences were determined using a one-way analysis of variance, followed by a pairwise comparison of means (LSD test; p < 0.05) (Microsoft Office Excel® 2016).

Data set [2] has as its system Monilinia fructicola strain 2 (S2). In words: radial mycelial growth test, M. fructicola strain 2 (S2). It counts as cell-based. The conditions noted are these: PDA, 120 h at 24 °C in the dark, n = 6, read-out: EC50 ± SD, mycelial growth inhibition.
Description: as §1, §2, §3

Data set [3] concerns both strains of M. fructicola. In words: radial mycelial growth test, inhibition percentages over both strains. It counts as cell-based. The conditions noted are these: Monilinia fructicola, range over strains 1 and 2, read-out: inhibition percentage of mycelial growth.
Description: as §1
as §2, with “The test compounds were dissolved in ethanol (5% v/v) and added to the potato dextrose agar medium (PDA) medium in the petri dishes to obtain a final concentration of 10, 25, 50, 150, and 250 µg/mL.” left out, “compounds. […]” for “compounds.”

Experimental findings from publication PMC8300761, “In Vitro Antifungal Activity and Toxicity of Dihydrocarvone-Hybrid Derivatives against Monilinia fructicola” (Antibiotics, 2021) are described below.

≈ marks a conversion by molar mass, not a printed value.

On to `C=C(C)[C@@H]1CCC(C)C(=O)C1` (some centres unmarked) [Compound 1, Dihydrocarvone], for which, in the data set on Artemia salina L. larvae, the “LD50 (BSLT)” value is given as 550 µg/mL. In addition, the concentration for a half-maximal effect (EC50) in data set [1] and in data set [2] was > 250 µg/mL in each case.
As to `C=C(C)[C@@H]1CCC(C)C(=O)C1=Cc1ccccc1` (stereo partly drawn) [Compound 2, (3S)-2-benzylidene-3-isopropenyl-6-methylcyclohexanone], the “LD50 (BSLT)” value with Artemia salina L. larvae is reported as >1000 µg/mL. For the same compound, the EC50 in data set [1] and in data set [2] was > 250 µg/mL throughout.
`C=C(C)[C@@H]1CCC(C)C(=O)C1=Cc1ccccc1OC` (stereo partly drawn) [Compound 3, (3S)-3-isopropenyl-2-(2-methoxybenzylidene)-6-methylcyclohexanone]: in the data set with Artemia salina L. larvae, the “LD50 (BSLT)” value is on record as >1000 µg/mL. The EC50 in data set [1] is > 250 µg/mL; in data set [2], 58 ± 0.7 µg/mL (≈ 215 µM).
For `C=C(C)[C@@H]1CCC(C)C(=O)C1=Cc1cccc(OC)c1` (stereo partly drawn) [Compound 4, (3S)-3-isopropenyl-2-(3-methoxybenzylidene)-6-methylcyclohexanone] the same measures were >1000 µg/mL, 273.2 ± 0.9 µg/mL (≈ 1010 µM) and 39.6 ± 1.1 µg/mL (≈ 146 µM).
For `C=C(C)[C@@H]1CCC(C)C(=O)C1=Cc1ccc(OC)cc1` (stereo partly drawn) [Compound 5, (3S)-3-isopropenyl-2-(4-methoxybenzylidene)-6-methylcyclohexanone] the same measures were >1000 µg/mL, > 250 µg/mL and 23.1 ± 1.2 µg/mL (≈ 85.4 µM).
For `C=C(C)[C@@H]1CCC(C)C(=O)C1=Cc1ccc(OC)c(OC)c1` (stereo partly drawn) [Compound 6, (3S)-2-(3,4-dimethoxybenzylidene)-3-isopropenyl-6-methylcyclohexanone] the same measures were 954 µg/mL, > 250 µg/mL and 47.7 ± 0.8 µg/mL (≈ 159 µM).
As to `C=C(C)[C@@H]1CCC(C)C(=O)C1=Cc1ccc2c(c1)OCO2` (stereo partly drawn) [Compound 7, (3S)-2-(1,3-benzodioxol-5-ylmethylene)-3-isopropenyl-6-methylcyclohexanone], in the data set on Artemia salina L. larvae, the “LD50 (BSLT)” value came to 910 µg/mL. In addition, in data set [1], the EC50 is 146 to 148 µg/mL (≈ 513 to 521 µM) and the “EC50 ± SD, mycelial growth inhibition” value was found to be 148.1 ± 1.4 µg/mL (≈ 521 µM). In addition, in data set [2], the EC50 amounted to 18.1 µg/mL (≈ 63.7 µM).
Take `C=C(C)[C@@H]1CCC(C)C(=O)C1=Cc1cccc(O)c1` (stereo partly drawn) [Compound 8, (3S)-2-(3-hydroxybenzylidene)-3-isopropenyl-6-methylcyclohexanone]: in the data set on Artemia salina L. larvae, the “LD50 (BSLT)” value was 890 µg/mL. Moreover, the inhibition at 150 µg/mL in data set [3] (150 µg/mL) was in the range of 47 to 88%. Moreover, the inhibition at 250 µg/mL in data set [3] (250 µg/mL) was in the range of 62 to 97%. In addition, the figures for the EC50 in data set [1] and in data set [2] were 146 to 148 µg/mL (≈ 569 to 578 µM) and 15.7 ± 1.3 µg/mL (≈ 61.2 µM), respectively. In addition, in data set [1], the “EC50 ± SD, mycelial growth inhibition” value is 145.9 ± 1.7 µg/mL (≈ 569 µM).
Turning to `C=C(C)[C@@H]1CCC(C)C(=O)C1=Cc1ccc(O)cc1` (stereo partly drawn) [Compound 9, (3S)-2-(4-hydroxybenzylidene)-3-isopropenyl-6-methylcyclohexanone], the “LD50 (BSLT)” value in the data set with Artemia salina L. larvae is recorded as 847 µg/mL. The “times less toxic than the commercial control of M. fructicola (BSLT)” value in the data set on Artemia salina L. larvae (compared with the commercial control (Mystic 520 SC)) is listed as 80 times. Besides, the 50% effective concentration (EC50) in data set [1] and in data set [2] was > 250 µg/mL throughout.
